Laboratory results as given in PubChem BioAssay AID192 (DTP/NCI, 2004).
Several values for one entry are separate records, joined by “and”; a condition that tells them apart may be missing. Equal entries are not always repeated. Toxic doses and inconclusive results are not listed.

Tested on: BDF1 mice, B16 melanoma ip, median survival T/C
Test: NCI In Vivo Anticancer Drug Screen. Data for tumor model B16 Melanoma (intraperitoneal) in B6D2F1 (BDF1) mice
Details: endpoint: median survival time, higher = longer survival
Method in brief: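 Survival or tumor size is measured after treatment of tumor-bearing mice and normalised to the vehicle-treated control group.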

[1] = dose: 100.0 mg/kg/injection, schedule: Q04DX003 (ip), vehicle: saline with Tween-80
[2] = dose: 50.0 mg/kg/injection, schedule: Q01DX009 (ip), vehicle: Klucel (hydroxypropylcellulose) (HPC)
[3] = dose: 50.0 mg/kg/injection, schedule: Q01DX009 (ip), vehicle: saline
[4] = dose: 100.0 mg/kg/injection, schedule: Q01DX009 (ip), vehicle: saline
[5] = dose: 200.0 mg/kg/injection, schedule: Q01DX009 (ip), vehicle: saline
[6] = dose: 12.5 mg/kg/injection, schedule: Q01DX009 (ip), vehicle: saline
[7] = dose: 25.0 mg/kg/injection, schedule: Q01DX009 (ip), vehicle: saline
[8] = dose: 0.75 mg/kg/injection, schedule: Q01DX009 (ip), vehicle: saline
[9] = dose: 6.25 mg/kg/injection, schedule: Q01DX009 (ip), vehicle: Klucel (hydroxypropylcellulose) (HPC)
[10] = dose: 12.5 mg/kg/injection, schedule: Q01DX009 (ip), vehicle: Klucel (hydroxypropylcellulose) (HPC)
[11] = dose: 12.5 mg/kg/injection, schedule: Q01DX009 (ip), vehicle: saline with Tween-80
[12] = dose: 25.0 mg/kg/injection, schedule: Q01DX009 (ip), vehicle: Klucel (hydroxypropylcellulose) (HPC)
[13] = dose: 25.0 mg/kg/injection, schedule: Q01DX009 (ip), vehicle: saline with Tween-80
[14] = dose: 400.0 mg/kg/injection, schedule: Q01DX009 (ip), vehicle: saline

`Cc1ccc(S(=O)(=O)N(C)C)cc1N` was tested, and the T/C (dose: 100.0 mg/kg/injection, schedule: Q01DX009 (ip), vehicle: saline with Tween-80) was 97 % of control, the T/C [1] was 100 % of control and the T/C (dose: 200.0 mg/kg/injection, schedule: Q01DX009 (ip), vehicle: saline with Tween-80) was 118 % of control. The T/C (dose: 200.0 mg/kg/injection, schedule: Q04DX003 (ip), vehicle: saline with Tween-80) was 102 % of control, the T/C (dose: 400.0 mg/kg/injection, schedule: Q01DX009 (ip), vehicle: saline with Tween-80) was 102 % of control and the T/C (dose: 400.0 mg/kg/injection, schedule: Q04DX003 (ip), vehicle: saline with Tween-80) was 100 % of control.
With `Cc1ccc(OS(=O)(=O)c2ccc([N+](=O)[O-])cc2)cc1` the T/C [2] was 97 % of control, the T/C (dose: 100.0 mg/kg/injection, schedule: Q01DX009 (ip), vehicle: Klucel (hydroxypropylcellulose) (HPC)) was 97 % of control and the T/C (dose: 200.0 mg/kg/injection, schedule: Q01DX009 (ip), vehicle: Klucel (hydroxypropylcellulose) (HPC)) was 111 % of control.
`Nc1ccc(N2CCNCC2)cc1` was tested, and the T/C [3] was 108 % of control, the T/C [4] was 97 % of control and the T/C [5] was 100 % of control.
For `CCOC(=O)/C(Cc1cc[n+]([O-])c2ccccc12)=N/O`, the T/C (dose: 100.0 mg/kg/injection, schedule: Q04DX003 (ip), vehicle: Klucel (hydroxypropylcellulose) (HPC)) was 88 % of control, the T/C (dose: 200.0 mg/kg/injection, schedule: Q04DX003 (ip), vehicle: Klucel (hydroxypropylcellulose) (HPC)) was 97 % of control and the T/C (dose: 400.0 mg/kg/injection, schedule: Q04DX003 (ip), vehicle: Klucel (hydroxypropylcellulose) (HPC)) was 88 % of control.
`CNC(=O)Oc1cccn(C(=O)NC)c1=O` was tested, and the T/C [6] was 86 % of control, the T/C [7] was 91 % of control and 93 % of control and the T/C [3] was 87 % of control. For the same compound, the T/C (dose: 75.0 mg/kg/injection, schedule: Q01DX009 (ip), vehicle: saline) was 88 % of control and the T/C [4] was 86 % of control.
For `Nc1ccc(N(CCCl)CCN(CCCl)c2ccc(N)cc2)cc1`, the T/C (dose: 0.36 mg/kg/injection, schedule: Q01DX009 (ip), vehicle: saline) was 108 % of control, the T/C [8] was 113 % of control and the T/C (dose: 1.5 mg/kg/injection, schedule: Q01DX009 (ip), vehicle: saline) was 113 % of control. The T/C (dose: 3.0 mg/kg/injection, schedule: Q01DX009 (ip), vehicle: saline) was 119 % of control.
With `CC(C)=CC(=O)OC1C2C(C)C(=O)OC2C(O)C(C)C2C=CC(=O)C21C` (stereo not given) the T/C [9] was 95 % of control, the T/C (dose: 6.25 mg/kg/injection, schedule: Q01DX009 (ip), vehicle: saline with Tween-80) was 91 % of control and the T/C [10] was 97 % of control. The T/C [11] was 94 % of control, the T/C [12] was 93 % of control and 99 % of control and the T/C [13] was 97 % of control.
In the case of `O=[N+]([O-])c1cc(Cl)cc2c1nc(NCCO)c1ccccc12`, the T/C [11] is reported as 97 % of control and the T/C [13] is reported as 97 % of control.
For `O=C(O)c1ccc(C(=O)O)c(C(=O)O)c1.[NH-]C1CCCCC1[NH-].[Pt+2]`, the T/C (dose: 0.19 mg/kg/injection, schedule: Q01DX009 (ip), vehicle: sodium bicarbonate) was 151 % of control, the T/C (dose: 0.39 mg/kg/injection, schedule: Q01DX009 (ip), vehicle: sodium bicarbonate) was 118 % of control and the T/C (dose: 0.4 mg/kg/injection, schedule: Q01DX009 (ip), vehicle: sodium bicarbonate) was 116 % of control. The T/C (dose: 0.78 mg/kg/injection, schedule: Q01DX009 (ip), vehicle: sodium bicarbonate) was 185 % of control, the T/C (dose: 0.8 mg/kg/injection, schedule: Q01DX009 (ip), vehicle: other) was 165 % of control and the T/C (dose: 1.56 mg/kg/injection, schedule: Q01DX009 (ip), vehicle: other) was 181 % of control. The T/C (dose: 1.56 mg/kg/injection, schedule: Q01DX009 (ip), vehicle: sodium bicarbonate) was 158 % of control and 159 % of control, the T/C (dose: 1.6 mg/kg/injection, schedule: Q01DX009 (ip), vehicle: other) was 157 % of control and the T/C (dose: 1.6 mg/kg/injection, schedule: Q01DX009 (ip), vehicle: sodium bicarbonate) was 161 % of control. The T/C (dose: 3.12 mg/kg/injection, schedule: Q01DX009 (ip), vehicle: other) was 169 % of control, the T/C (dose: 3.2 mg/kg/injection, schedule: Q01DX009 (ip), vehicle: sodium bicarbonate) was 168 % of control and the T/C (dose: 4.8 mg/kg/injection, schedule: Q01DX009 (ip), vehicle: sodium bicarbonate) was 169 % of control. The T/C (dose: 6.25 mg/kg/injection, schedule: Q01DX009 (ip), vehicle: other) was 171 % of control.
With `CCCCNC(C)(C)C(SSC(c1ccc(Cl)cc1)C(C)(C)NCCCC)c1ccc(Cl)cc1` (stereo not given) the T/C (dose: 6.25 mg/kg/injection, schedule: Q01DX009 (ip), vehicle: saline) was 109 % of control, the T/C [6] was 97 % of control and the T/C [7] was 88 % of control.
In the case of `CCNC1=C(N2CC2)C(=O)C(NCC)=C(N2CC2)C1=O`, the T/C (dose: 0.37 mg/kg/injection, schedule: Q01DX009 (ip), vehicle: saline) is reported as 112 % of control and the T/C [8] is reported as 104 % of control and 116 % of control.
With `CN1CCC(C=C2c3ccccc3CCc3ccccc32)C1` (stereo not given) the T/C (dose: 1.56 mg/kg/injection, schedule: Q01DX009 (ip), vehicle: saline) was 102 % of control, the T/C (dose: 3.12 mg/kg/injection, schedule: Q01DX009 (ip), vehicle: saline) was 100 % of control and the T/C [7] was 102 % of control.
For `CC(NC(=O)C(N)CCC(=O)O)C(=O)O` (stereo not given), the T/C [3] was 97 % of control, the T/C [4] was 90 % of control and the T/C [5] was 90 % of control. For the same compound, the T/C [14] was 94 % of control.
For `C=CN1CCCC1=O`, the T/C (dose: 178.0 mg/kg/injection, schedule: Q01DX009 (ip), vehicle: saline) was 109 % of control, the T/C (dose: 266.0 mg/kg/injection, schedule: Q01DX009 (ip), vehicle: saline) was 100 % of control and the T/C [14] was 104 % of control. For the same compound, the T/C (dose: 600.0 mg/kg/injection, schedule: Q01DX009 (ip), vehicle: saline) was 111 % of control and the T/C (dose: 750.0 mg/kg/injection, schedule: Q01DX009 (ip), vehicle: saline) was 108 % of control.
`S=c1sc2ccccc2n1CN(c1ccccc1)c1ccc2ccccc2c1` was tested, and the T/C (dose: 25.0 mg/kg/injection, schedule: Q04DX003 (ip), vehicle: saline with Tween-80) was 109 % of control, the T/C (dose: 50.0 mg/kg/injection, schedule: Q04DX003 (ip), vehicle: saline with Tween-80) was 106 % of control and the T/C [1] was 93 % of control and 103 % of control.
For `CN(C1CCCCC1)C1CCCCC1`, the T/C [9] was 92 % of control, the T/C [10] was 92 % of control and the T/C [12] was 94 % of control.
For `Cc1cc(Cl)ccc1OCC(=O)Nc1nc(N)nc(N)n1`, the T/C (dose: 12.5 mg/kg/injection, schedule: Q04DX009 (ip), vehicle: Klucel (hydroxypropylcellulose) (HPC)) was 88 % of control, the T/C (dose: 25.0 mg/kg/injection, schedule: Q04DX009 (ip), vehicle: Klucel (hydroxypropylcellulose) (HPC)) was 92 % of control and the T/C (dose: 50.0 mg/kg/injection, schedule: Q04DX009 (ip), vehicle: Klucel (hydroxypropylcellulose) (HPC)) was 87 % of control.
In the case of `COc1ccc(C2c3cc4c(c(OC)c3CC3OCC(=O)C32)OCO4)cc1OC` (stereo not given), the T/C [10] is reported as 102 % of control, the T/C [12] is reported as 102 % of control and the T/C [2] is reported as 117 % of control.
For `COC(=O)C12Oc3ccc(-c4ccc5c(c4O)C(=O)C4=CCC(C)C(O)C4(C(=O)OC)O5)c(O)c3C(=O)C1=CCC(C)C2O` (stereo not given), the T/C (dose: 2.5 mg/kg/injection, schedule: Q01DX009 (ip), vehicle: saline with Tween-80) was 97 % of control, the T/C (dose: 5.0 mg/kg/injection, schedule: Q01DX009 (ip), vehicle: saline with Tween-80) was 86 % of control and 98 % of control and the T/C (dose: 10.0 mg/kg/injection, schedule: Q01DX009 (ip), vehicle: saline with Tween-80) was 88 % of control and 98 % of control.
In the case of `C/C=C1/C[C@@H](C)[C@@](C)(O)C(=O)OCC2=CCN3CC[C@@H](OC1=O)[C@@H]23`, the T/C (dose: 10.0 mg/kg/injection, schedule: Q01DX009 (ip), vehicle: saline) is reported as 110 % of control, the T/C (dose: 11.3 mg/kg/injection, schedule: Q01DX009 (ip), vehicle: saline) is reported as 111 % of control and the T/C (dose: 20.0 mg/kg/injection, schedule: Q01DX009 (ip), vehicle: saline) is reported as 113 % of control. For the same compound, the T/C (dose: 22.5 mg/kg/injection, schedule: Q01DX009 (ip), vehicle: saline) was 285 % of control, the T/C (dose: 40.0 mg/kg/injection, schedule: Q01DX009 (ip), vehicle: saline) was 108 % of control and the T/C (dose: 45.0 mg/kg/injection, schedule: Q01DX009 (ip), vehicle: saline) was 102 % of control. The T/C (dose: 80.0 mg/kg/injection, schedule: Q01DX009 (ip), vehicle: saline) was 108 % of control and the T/C (dose: 90.0 mg/kg/injection, schedule: Q01DX009 (ip), vehicle: saline) was 88 % of control.
